Source: ChEMBL document CHEMBL4033723, “Succinamide derivatives of melampomagnolide B and their anti-cancer activities” (2017)

Legend:
Type in all cases: functional
MCF7 = test: Growth inhibition of human MCF7 cells after 48 hrs by sulforhodamine B assay; conditions: MCF7, 48 h
SW-620 = test: Growth inhibition of human SW620 cells after 48 hrs by sulforhodamine B assay; conditions: SW-620, 48 h
NCI-H23 = test: Growth inhibition of human NCI-H23 cells after 48 hrs by sulforhodamine B assay; conditions: NCI-H23, 48 h
K562 = test: Growth inhibition of human K562 cells after 48 hrs by sulforhodamine B assay; conditions: K562, 48 h
SK-MEL-28 = test: Growth inhibition of human SK-MEL-28 cells after 48 hrs by sulforhodamine B assay; conditions: SK-MEL-28, 48 h
SNB-19 = test: Growth inhibition of human SNB19 cells after 48 hrs by sulforhodamine B assay; conditions: SNB-19, 48 h
BT-549 = test: Growth inhibition of human BT549 cells after 48 hrs by sulforhodamine B assay; conditions: BT-549, 48 h
DU-145 = test: Growth inhibition of human DU145 cells after 48 hrs by sulforhodamine B assay; conditions: DU-145, 48 h
UACC-257 = test: Growth inhibition of human UACC257 cells after 48 hrs by sulforhodamine B assay; conditions: UACC-257, 48 h
[1] = Induction of apoptosis in human M9-ENL1 cells assessed as cell death after 24 hrs by Annexin V/PI or 7-AAD staining based flow cytometry; conditions: M9-ENL1, 24 h, read-out: LC50 (the source's name)
SN12C = test: Growth inhibition of human SN12C cells after 48 hrs by sulforhodamine B assay
CCRF-CEM = test: Growth inhibition of human CCRF-CEM cells after 48 hrs by sulforhodamine B assay
SF-539 = test: Growth inhibition of human SF539 cells after 48 hrs by sulforhodamine B assay; conditions: SF-539, 48 h
TK-10 = test: Growth inhibition of human TK10 cells after 48 hrs by sulforhodamine B assay; conditions: TK-10, 48 h
OVCAR-8 = test: Growth inhibition of human OVCAR8 cells after 48 hrs by sulforhodamine B assay; conditions: OVCAR-8, 48 h
MDA-MB-435 = test: Growth inhibition of human MDA-MB-435 cells after 48 hrs by sulforhodamine B assay; conditions: MDA-MB-435, 48 h
CAKI-1 = test: Growth inhibition of human Caki1 cells after 48 hrs by sulforhodamine B assay; conditions: CAKI-1, 48 h
M14 = test: Growth inhibition of human M14 cells after 48 hrs by sulforhodamine B assay; conditions: M14, 48 h
Malme-3M = test: Growth inhibition of human MALME-3M cells after 48 hrs by sulforhodamine B assay
UACC-62 = test: Growth inhibition of human UACC62 cells after 48 hrs by sulforhodamine B assay; conditions: UACC-62, 48 h
HCT-116 = test: Growth inhibition of human HCT116 cells after 48 hrs by sulforhodamine B assay; conditions: HCT-116, 48 h
OVCAR-5 = test: Growth inhibition of human OVCAR5 cells after 48 hrs by sulforhodamine B assay; conditions: OVCAR-5, 48 h
MDA-MB-231 = test: Growth inhibition of human MDA-MB-231 cells after 48 hrs by sulforhodamine B assay; conditions: MDA-MB-231, 48 h
UO-31 = test: Growth inhibition of human UO31 cells after 48 hrs by sulforhodamine B assay; conditions: UO-31, 48 h
LOX IMVI = test: Growth inhibition of human LOXIMVI cells after 48 hrs by sulforhodamine B assay
786-0 = test: Growth inhibition of human 786-0 cells after 48 hrs by sulforhodamine B assay; conditions: 786-0, 48 h
NCI-H522 = test: Growth inhibition of human NCI-H522 cells after 48 hrs by sulforhodamine B assay; conditions: NCI-H522, 48 h
NCI-H460 = test: Growth inhibition of human NCI-H460 cells after 48 hrs by sulforhodamine B assay; conditions: NCI-H460, 48 h
SR = test: Growth inhibition of human SR cells after 48 hrs by sulforhodamine B assay
RPMI-8226 = test: Growth inhibition of human RPMI8226 cells after 48 hrs by sulforhodamine B assay; conditions: RPMI-8226, 48 h
HT-29 = test: Growth inhibition of human HT-29 cells after 48 hrs by sulforhodamine B assay; conditions: HT-29, 48 h
[2] = Growth inhibition of human M9-ENL1 cells after 24 hrs by trypan blue assay; conditions: M9-ENL1, 24 h
A498 = test: Growth inhibition of human A498 cells after 48 hrs by sulforhodamine B assay; conditions: A498, 48 h
HCT-15 = test: Growth inhibition of human HCT15 cells after 48 hrs by sulforhodamine B assay; conditions: HCT-15, 48 h
SK-OV-3 = test: Growth inhibition of human SKOV3 cells after 48 hrs by sulforhodamine B assay; conditions: SK-OV-3, 48 h
T47D = test: Growth inhibition of human T47D cells after 48 hrs by sulforhodamine B assay
KM12 = test: Growth inhibition of human KM12 cells after 48 hrs by sulforhodamine B assay; conditions: KM12, 48 h
HOP-92 = test: Growth inhibition of human HOP92 cells after 48 hrs by sulforhodamine B assay; conditions: HOP-92, 48 h
HL-60(TB) = test: Growth inhibition of human HL-60(TB) cells after 48 hrs by sulforhodamine B assay; conditions: HL-60, 48 h
SK-MEL-2 = test: Growth inhibition of human SK-MEL-2 cells after 48 hrs by sulforhodamine B assay; conditions: SK-MEL-2, 48 h
NCI-H226 = test: Growth inhibition of human NCI-H226 cells after 48 hrs by sulforhodamine B assay; conditions: NCI-H226, 48 h
SF-268 = test: Growth inhibition of human SF268 cells after 48 hrs by sulforhodamine B assay; conditions: SF-268, 48 h
SK-MEL-5 = test: Growth inhibition of human SK-MEL-5 cells after 48 hrs by sulforhodamine B assay; conditions: SK-MEL-5, 48 h
MOLT-4 = test: Growth inhibition of human MOLT4 cells after 48 hrs by sulforhodamine B assay; conditions: MOLT-4, 48 h
PC-3 = test: Growth inhibition of human PC3 cells after 48 hrs by sulforhodamine B assay; conditions: PC-3, 48 h
RXF 393 = test: Growth inhibition of human RXF393 cells after 48 hrs by sulforhodamine B assay; conditions: RXF 393, 48 h
SF-295 = test: Growth inhibition of human SF295 cells after 48 hrs by sulforhodamine B assay; conditions: SF-295, 48 h
NCI-H322M = test: Growth inhibition of human NCI-H322M cells after 48 hrs by sulforhodamine B assay
U-251 = test: Growth inhibition of human U251 cells after 48 hrs by sulforhodamine B assay; conditions: U-251, 48 h
HCC 2998 = test: Growth inhibition of human HCC2998 cells after 48 hrs by sulforhodamine B assay; conditions: HCC 2998, 48 h
OVCAR-3 = test: Growth inhibition of human OVCAR3 cells after 48 hrs by sulforhodamine B assay; conditions: OVCAR-3, 48 h
A549 = test: Growth inhibition of human A549/ATCC cells after 48 hrs by sulforhodamine B assay; conditions: A549, 48 h
MDA-MB-468 = test: Growth inhibition of human MDA-MB-468 cells after 48 hrs by sulforhodamine B assay; conditions: MDA-MB-468, 48 h
COLO 205 = test: Growth inhibition of human COLO205 cells after 48 hrs by sulforhodamine B assay; conditions: COLO 205, 48 h
NCI/ADR-RES = test: Growth inhibition of human NCI-ADR-RES cells after 48 hrs by sulforhodamine B assay
ACHN = test: Growth inhibition of human ACHN cells after 48 hrs by sulforhodamine B assay
OVCAR-4 = test: Growth inhibition of human OVCAR4 cells after 48 hrs by sulforhodamine B assay; conditions: OVCAR-4, 48 h
SNB-75 = test: Growth inhibition of human SNB75 cells after 48 hrs by sulforhodamine B assay; conditions: SNB-75, 48 h
Hs-578T = test: Growth inhibition of human Hs 578T cells after 48 hrs by sulforhodamine B assay

C=C1C(=O)O[C@H]2[C@H]1CC/C(COC(=O)CCC(=O)NCCCCCCCCNC(=O)CCC(=O)OC/C1=C/CC[C@@]3(C)O[C@H]3[C@H]3OC(=O)C(=C)[C@@H]3CC1)=C\CC[C@@]1(C)O[C@@H]21
GI50 (MCF7): 770 nM | GI50 (SW-620): 1220 nM | GI50 (NCI-H23): 2990 nM | GI50 (K562): 970 nM | GI50 (SK-MEL-28): 1650 nM | GI50 (SNB-19): 4.15 µM | GI50 (BT-549): 1230 nM | GI50 (DU-145): 1920 nM | GI50 (UACC-257): 1760 nM | CC50 [1]: 11 µM | GI50 (SN12C): 3.74 µM | GI50 (CCRF-CEM): 320 nM | GI50 (SF-539): 2430 nM | GI50 (TK-10): 20.8 µM | GI50 (OVCAR-8): 2.9 µM | GI50 (MDA-MB-435): 1800 nM | GI50 (CAKI-1): 12.7 µM | GI50 (M14): 1790 nM | GI50 (Malme-3M): 2040 nM | GI50 (UACC-62): 1970 nM | GI50 (HCT-116): 1540 nM | GI50 (OVCAR-5): 1820 nM | GI50 (MDA-MB-231): 1970 nM | GI50 (UO-31): 10.9 µM | GI50 (LOX IMVI): 1370 nM | GI50 (786-0): 1620 nM | GI50 (NCI-H522): 480 nM | GI50 (NCI-H460): 5 µM | GI50 (SR): 410 nM | GI50 (RPMI-8226): 1670 nM | GI50 (HT-29): 1640 nM | GI50 [2]: 1000 nM | GI50 (A498): 6.72 µM | GI50 (HCT-15): 3.6 µM | GI50 (SK-OV-3): 6.45 µM | GI50 (T47D): 1510 nM | GI50 (KM12): 9.46 µM | GI50 (HOP-92): 1580 nM | GI50 (HL-60(TB)): 630 nM | GI50 (SK-MEL-2): 2250 nM | GI50 (NCI-H226): 2060 nM | GI50 (SF-268): 3.34 µM | GI50 (SK-MEL-5): 3130 nM | GI50 (MOLT-4): 2110 nM | GI50 (PC-3): 3.64 µM | GI50 (RXF 393): 850 nM | GI50 (SF-295): 15.1 µM | GI50 (NCI-H322M): 16.3 µM | GI50 (U-251): 3.03 µM | GI50 (HCC 2998): 4.12 µM | GI50 (OVCAR-3): 1500 nM | GI50 (A549): 18.5 µM | GI50 (MDA-MB-468): 1330 nM | GI50 (COLO 205): 1350 nM | GI50 (NCI/ADR-RES): 33.5 µM | GI50 (ACHN): 3130 nM | GI50 (OVCAR-4): 1640 nM | GI50 (SNB-75): 2020 nM | GI50 (Hs-578T): 3.88 µM

C=C1C(=O)O[C@H]2[C@H]1CC/C(COC(=O)CCC(=O)NCCCCCCCCCNC(=O)CCC(=O)OC/C1=C/CC[C@@]3(C)O[C@H]3[C@H]3OC(=O)C(=C)[C@@H]3CC1)=C\CC[C@@]1(C)O[C@@H]21
GI50 (MCF7): 420 nM | GI50 (SW-620): 540 nM | GI50 (NCI-H23): 2230 nM | GI50 (K562): 450 nM | GI50 (SK-MEL-28): 1470 nM | GI50 (SNB-19): 3.38 µM | GI50 (BT-549): 660 nM | GI50 (DU-145): 1750 nM | GI50 (UACC-257): 2060 nM | CC50 [1]: 6.5 µM | GI50 (SN12C): 2.69 µM | GI50 (CCRF-CEM): 280 nM | GI50 (SF-539): 1850 nM | GI50 (TK-10): 1.78 µM | GI50 (OVCAR-8): 3.24 µM | GI50 (MDA-MB-435): 1630 nM | GI50 (CAKI-1): 10.5 µM | GI50 (M14): 1650 nM | GI50 (Malme-3M): 1940 nM | GI50 (UACC-62): 1690 nM | GI50 (HCT-116): 860 nM | GI50 (OVCAR-5): 1700 nM | GI50 (MDA-MB-231): 1580 nM | GI50 (UO-31): 3.9 µM | GI50 (LOX IMVI): 370 nM | GI50 (786-0): 1490 nM | GI50 (NCI-H522): 420 nM | GI50 (NCI-H460): 2.18 µM | GI50 (SR): 330 nM | GI50 (RPMI-8226): 500 nM | GI50 (HT-29): 1330 nM | GI50 [2]: 440 nM | GI50 (A498): 2.72 µM | GI50 (HCT-15): 2.63 µM | GI50 (SK-OV-3): 5.8 µM | GI50 (T47D): 1490 nM | GI50 (KM12): 4.6 µM | GI50 (HOP-92): 1400 nM | GI50 (HL-60(TB)): 440 nM | GI50 (SK-MEL-2): 2120 nM | GI50 (NCI-H226): 1900 nM | GI50 (SF-268): 2.92 µM | GI50 (SK-MEL-5): 1880 nM | GI50 (MOLT-4): 640 nM | GI50 (PC-3): 2.53 µM | GI50 (RXF 393): 1010 nM | GI50 (SF-295): 7.68 µM | GI50 (NCI-H322M): 16.3 µM | GI50 (U-251): 3.01 µM | GI50 (HCC 2998): 2.25 µM | GI50 (OVCAR-3): 1290 nM | GI50 (A549): 13.8 µM | GI50 (MDA-MB-468): 980 nM | GI50 (COLO 205): 1220 nM | GI50 (NCI/ADR-RES): 26.7 µM | GI50 (ACHN): 2100 nM | GI50 (OVCAR-4): 1480 nM | GI50 (SNB-75): 1470 nM | GI50 (Hs-578T): 2.99 µM
